Assay results reported in patent US20120076781A1, “METHODS OF TREATING CANCERS WITH HER3 ANTISENSE OLIGONUCLEOTIDES” (ENZON PHARMACEUTICALS, INC., priority 2009, published 2012).
Marks after values point to notes of the source that are not given here. In the oligonucleotide strings, read from the 5' end, every base follows the letter of its sugar. An asterisk marks phosphorothioate; unmarked linkages are phosphodiester. Other units and linkages are bracketed, terminal groups are in braces. A string of capitals states the bases alone. l = locked nucleic acid (LNA); [5mC] = 5-methylcytosine; d = 2'-deoxy (DNA)

How the values were obtained:
HER3 mRNA [1] = assay: HER3 mRNA knockdown in 15PC3 xenograft tumor, different dosing cycle; type: in vivo, human; conditions: every third day
Method: (§1) To evaluate the knockdown efficacy of the HER3 oligomeric compounds in vivo, the female nude mice bearing 15PC3 xenografts developed by subcutaneous injection of 5×10^6 cells/mouse into the right axillary flank, were injected intravenously with the oligomers at various doses and injection schedules (i.e. single dose, qd, q3d, q4d). Scrambled oligomer SEQ ID NO: 236 served as a negative control. 24 hours after the last injection, the mice were euthanized and liver and tumor tissues were collected in RNAlater solution (Ambion). Total RNA was purified from the tissues and the levels of HER3 mRNA were determined by quantitative reverse transcription-real time PCR (qRT-PCR) using the QuantiTect Probe RT-PCR kit (Cat#: 204443; Qiagen). GAPDH mRNA served as an internal control.
(§2) The knockdown efficacy of oligomers was evaluated in vivo in nude mice bearing xenograft tumors derived from 15PC3 cells or A549 cells (NSCLC) or N87 cells (gastric carcinoma) using a similar protocol to the one described above in Example 11. Oligomers were administered by injection every third day in 2-4 doses. Tissues were harvested 3 or 4 days after the last injection.
(§3) Data in Tables 6 and 7 are presented as % HER3 mRNA or HIF-1 alpha mRNA relative to saline treated controls in liver and tumor samples after i.v. dosing of animals with the indicated oligomers.

Mouse HER3 mRNA = assay: HER3 mRNA knockdown in liver of nude mice bearing 15PC3 xenografts, qd x 5 (qRT-PCR); type: in vivo; conditions: i.v.
Method: as §1
(§4) 200 ng of total RNA was used in the PCR reaction. The data analyses were performed by using the ABI-7500 PCR Fast System included software.
(§5) Data in Table 5 are presented as % HER3 mRNA levels relative to saline treated controls in liver and tumor samples after i.v. dosing of animals on 5 consecutive days with oligonucleotides in the doses indicated.

HIF-1 alpha mRNA = HIF-1 alpha mRNA in 15PC3 xenograft tumor, different dosing cycle; type: in vivo, human; conditions: every third day
Method: as §1, §2, §3

HER3 mRNA [2] = assay: HER3 mRNA knockdown in liver of xenograft-bearing nude mice, different dosing cycle; type: in vivo, mouse; conditions: 15PC3 xenograft mice, every third day
Method: as §1
as §2, with “Oligomers were administered by injection every third day in 2-4 doses.” left out
as §3

human HER3 mRNA [3] = assay: Down-regulation of HER3 mRNA in transfected 15PC3 cells, real-time PCR; type: cell-based; conditions: 25 nM
Method: (§6) 15PC3: The human prostate cancer cell line 15PC3 was cultured in DMEM (Sigma)+10% fetal bovine serum (FBS)+2 mM Glutamax I+gentamicin (25 μg/ml).
(§7) The cells were treated with oligonucleotides using the cationic liposome formulation LipofectAMINE 2000 (Gibco) as transfection vehicle. Cells were seeded in 6-well cell culture plates (NUNC) and treated when 80-90% confluent. Oligomer concentrations ranged from 1 nM to 25 nM final concentration. Formulation of oligomer-lipid complexes was carried out essentially as described by the manufacturer using serum-free OptiMEM (Gibco) and a final lipid concentration of 5 μg/mL LipofectAMINE 2000. Cells were incubated at 37° C. for 4 hours and treatment was stopped by removal of oligomer-containing culture medium. Cells were washed and serum-containing medium was added. After oligomer treatment, cells were allowed to recover for 20 hours before they were harvested for RNA analysis.
(§8) Total RNA was extracted from cells transfected as described above and using the Qiagen RNeasy kit (Qiagen cat. no. 74104) according to the manufacturer's instructions. First strand synthesis was performed using Reverse Transcriptase reagents from Ambion according to the manufacturer's instructions.
(§9) For each sample 0.5 μg total RNA was adjusted to (10.8 μl) with RNase free H2O and mixed with 2 μl random decamers (50 μM) and 4 μl dNTP mix (2.5 mM each dNTP) and heated to 70° C. for 3 min after which the samples were rapidly cooled on ice. After cooling the samples on ice, 2 μl 10× Buffer RT, 1 μl MMLV Reverse Transcriptase (100 U/μl) and 0.25 μl RNase inhibitor (10 U/μl) was added to each sample, followed by incubation at 42° C. for 60 min, heat inactivation of the enzyme at 95° C. for 10 min, and then cooling the sample to 4° C.
(§10) The sample content of human HER3, EGFR and HER2 mRNA was quantified using the human HER3, EGFR and HER2 ABI Prism Pre-Developed TaqMan Assay Reagents (Applied Biosystems cat. no. Hs00951444_ml (HER3), Hs00193306_ml (EGFR) and Hs00170433_ml (HER2) according to the manufacturer's instructions.
(§11) Glyceraldehyde-3-phosphate dehydrogenase (GAPDH) mRNA quantity was used as an endogenous control for normalizing any variance in sample preparation. The sample content of human GAPDH mRNA was quantified using the human GAPDH ABI Prism Pre-Developed TaqMan Assay Reagent (Applied Biosystems cat. no. 4310884E) according to the manufacturer's instructions.
(§12) The cDNA from the first strand synthesis performed as described in Example 5 was diluted 2-20 times, and analyzed by real time quantitative PCR using Taqman 7500 FAST or 7900 FAST from Applied Biosystems. The primers and probe were mixed with 2× Taqman Fast Universal PCR master mix (2×) (Applied Biosystems Cat. #4364103) and added to 4 μl cDNA to a final volume of 10 μl. Each sample was analysed in duplicate. Assaying 2-fold dilutions of a cDNA that had been prepared on material purified from a cell line expressing the RNA of interest generated standard curves for the assays. Sterile H2O was used instead of cDNA for the no-template control. PCR program: 95° C. for 30 seconds, followed by 40 cycles of 95° C., 3 seconds, 60° C., 20-30 seconds. Relative quantities of target mRNA sequence were determined from the calculated Threshold cycle using the Applied Biosystems Fast System SDS Software Version 1.3.1.21. or SDS Software Version 2.3.
(§13) Oligonucleotides presented in Table 4 were evaluated for their potential to down-regulate HER3, EGFR and HER2 mRNA at concentrations of 1, 5 and 25 nM in 15PC3 cells (or HUH-7 as indicated by *) (see FIGS. 2, 3, 4 and 5). SEQ ID NOs: 235 and 236 were used as scrambled controls.
(§14) The data in Table 4 are presented as percentage down-regulation of mRNA relative to mock transfected cells at 25 nM. Lower-case letters represent DNA monomers, bold, upper-case letters represent β-D-oxy-LNA monomers. All cytosines in LNA monomers are 5-methylcytosines. Subscript “s” represents a phosphorothioate linkage.

human HER2 mRNA = assay: Down-regulation of HER2 mRNA in transfected 15PC3 cells, real-time PCR; type: cell-based; conditions: 25 nM
Method: as §6, §7, §8, §9, §10, §11, §12, §13, §14

human HER3 mRNA [4] = assay: HER3 mRNA knockdown in 15PC3 xenograft tumor in nude mice, qd x 5 (qRT-PCR); type: in vivo; conditions: i.v., relative to saline controls
Method: as §1, §4, §5

human EGFR mRNA = assay: Down-regulation of EGFR mRNA in transfected 15PC3 cells, real-time PCR; type: cell-based; conditions: 25 nM
Method: as §6, §7, §8, §9, §10, §11, §12, §13, §14

[5] = tested on: HCC827R gefitinib resistant cells; assay: Cell proliferation of HCC827R cells under gefitinib (MTT assay); type: cell-based, human; conditions: highest concentration tested 10 μM
Method: HCC827 lung adenocarcinoma cells (ATCC CRL-2868) were maintained at 37° C. in a humidified atmosphere of 5% CO2 and 95% air in RPMI medium supplemented with 10% fetal bovine serum. To generate gefitinib resistance, cells were treated with increasing amounts of gefitinib (up to 500 nM) for a period of 3 months.

human HER3 mRNA [6] = assay: Down-regulation of HER3 mRNA in transfected HUH-7 cells, real-time PCR; type: cell-based; conditions: 25 nM, HUH-7 cells (indicated by *)
Method: HUH7: The human hepatocarcinoma cell line was cultured in DMEM (Sigma)+10% fetal bovine serum (FBS)+2 mM Glutamax I+gentamicin (25 μg/ml)+1× Non Essential Amino Acids.
The cells were treated with oligonucleotides using the cationic liposome formulation LipofectAMINE 2000 (Gibco) as transfection vehicle. Cells were seeded in 6-well cell culture plates (NUNC) and treated when 80-90% confluent. Oligomer concentrations ranged from 1 nM to 25 nM final concentration. Formulation of oligomer-lipid complexes was carried out essentially as described by the manufacturer using serum-free OptiMEM (Gibco) and a final lipid concentration of 5 μg/mL LipofectAMINE 2000. […]
as §10
as §11, with “instructions. […]” for “instructions.”

## ASGSAScSaStScSaScStScStSgSGSTSG (antisense lA*lG*lA*dC*dA*dT*dC*dA*dC*dT*dC*dT*dG*lG*lT*lG) [SEQ ID NO: 172, β-D-oxy-LNA/DNA phosphorothioate gapmer antisense oligonucleotide targeting HER3]
HER3 mRNA [1]; 32.4 x 4 mg/kg i.v.
  Tumor HER3 mRNA relative to saline treated controls: 107.3 ± 17%
Mouse HER3 mRNA; 9.7 mg/kg
  HER3 mRNA Liver: 12.2 ± 5.9 % of Sal ctrl
Mouse HER3 mRNA; 32.4 mg/kg
  HER3 mRNA Liver: 7.4 ± 5.2 % of Sal ctrl
HIF-1 alpha mRNA; 32.4 x 4 mg/kg i.v.
  Tumor Hif1A mRNA relative to saline treated controls: 100.3 ± 7.5%
HER3 mRNA [2]; 32.4 x 4 mg/kg i.v.
  Liver HER3 mRNA relative to saline treated controls: 44.3 ± 10.6%
Human HER3 mRNA [3]
  HER3: percentage down-regulation of mRNA relative to mock transfected cells: 84.2%
Human HER2 mRNA
  HER2: percentage down-regulation of mRNA relative to mock transfected cells: 61%
Human HER3 mRNA [4]; 32.4 mg/kg
  HER3 mRNA Tumor: 78.1 ± 15.3%
Human EGFR mRNA
  EGFR: percentage down-regulation of mRNA relative to mock transfected cells: 86.2%

## COc1cc2ncnc(Nc3ccc(F)c(Cl)c3)c2cc1OCCCN1CCOCC1 [gefitinib]
[5]
  cell proliferation of HCC827R cells under gefitinib: resistant to gefitinib even at the highest concentration tested

## GSASCSaStScSaScStScStSgSgSTSGST (lG*lA*l[5mC]*dA*dT*dC*dA*dC*dT*dC*dT*dG*dG*lT*lG*lT; antisense) [SEQ ID NO: 196]
Human HER3 mRNA [6]
  HER3: percentage down-regulation of mRNA relative to mock transfected cells: 77.0%*

## GSCSTScScSaSgSaScSaStScSaSCSTSC (antisense lG*l[5mC]*lT*dC*dC*dA*dG*dA*dC*dA*dT*dC*dA*l[5mC]*lT*l[5mC]) [SEQ ID NO: 169, β-D-oxy-LNA/DNA phosphorothioate gapmer antisense oligonucleotide targeting HER3]
HER3 mRNA [1]; 37.7 x 4 mg/kg i.v.
  Tumor HER3 mRNA relative to saline treated controls: 81.6 ± 12.7%
Mouse HER3 mRNA; 11.3 mg/kg
  HER3 mRNA Liver: 10.2 ± 5.5 % of Sal ctrl
Mouse HER3 mRNA; 37.7 mg/kg
  HER3 mRNA Liver: 20.7 ± 9.8 % of Sal ctrl
HIF-1 alpha mRNA; 37.7 x 4 mg/kg i.v.
  Tumor Hif1A mRNA relative to saline treated controls: 94.6 ± 19.6%
HER3 mRNA [2]; 37.7 x 4 mg/kg i.v.
  Liver HER3 mRNA relative to saline treated controls: 39 ± 4.6%
Human HER2 mRNA
  HER2: percentage down-regulation of mRNA relative to mock transfected cells: 75.8%
Human HER3 mRNA [4]; 37.7 mg/kg
  HER3 mRNA Tumor: 77 ± 10%
Human EGFR mRNA
  EGFR: percentage down-regulation of mRNA relative to mock transfected cells: 95.2%
